Here are results for six compounds from ChEMBL document CHEMBL4043122, “Discovery of spiro[indole-3,2'-pyrrolidin]-2(1H)-one based inhibitors targeting Brr2, a core component of the U5 snRNP” (Bioorg Med Chem, 2017).

Data set [1] concerns the target T1, U5 small nuclear ribonucleoprotein 200 kDa helicase (Homo sapiens, UniProt O75643). The experiment in a line: Inhibition of full length recombinant human N-terminal His-tagged BRR2 RNA dependent ATPase activity expressed in baculovirus infected Sf9 cells using single stranded poly(U) RNA as substrate after 30 mins by ADP-Glo luminescence assay.
Data set [2] has as its target Eukaryotic initiation factor 4A-I (Homo sapiens, UniProt P60842). As to the kind of experiment: Inhibition of elF4G-induced full length recombinant human N-terminal His6-SUMO-tagged eIF4A1 RNA dependent ATPase activity expressed in Escherichia coli BL21(DE3) using single stranded poly(U) RNA as substrate after 30 mins by ADP-Glo luminescence assay.
Data set [3] concerns the target Eukaryotic initiation factor 4A-III (Homo sapiens, UniProt P38919). As to the kind of experiment: Inhibition of MLN51-induced full length recombinant human N-terminal His6/SUMO-tagged eIF4A3 RNA dependent ATPase activity expressed in Escherichia coli BL21(DE3) using single stranded poly(U) RNA as substrate after 30 mins by ADP-Glo luminescence assay. Background: In ADP-Glo the light output rises with the ADP produced.

Data set [4] has as its target T2, ATP-dependent RNA helicase DHX29 (Homo sapiens, UniProt Q7Z478).
T2 sequence (Q7Z478 whole entry): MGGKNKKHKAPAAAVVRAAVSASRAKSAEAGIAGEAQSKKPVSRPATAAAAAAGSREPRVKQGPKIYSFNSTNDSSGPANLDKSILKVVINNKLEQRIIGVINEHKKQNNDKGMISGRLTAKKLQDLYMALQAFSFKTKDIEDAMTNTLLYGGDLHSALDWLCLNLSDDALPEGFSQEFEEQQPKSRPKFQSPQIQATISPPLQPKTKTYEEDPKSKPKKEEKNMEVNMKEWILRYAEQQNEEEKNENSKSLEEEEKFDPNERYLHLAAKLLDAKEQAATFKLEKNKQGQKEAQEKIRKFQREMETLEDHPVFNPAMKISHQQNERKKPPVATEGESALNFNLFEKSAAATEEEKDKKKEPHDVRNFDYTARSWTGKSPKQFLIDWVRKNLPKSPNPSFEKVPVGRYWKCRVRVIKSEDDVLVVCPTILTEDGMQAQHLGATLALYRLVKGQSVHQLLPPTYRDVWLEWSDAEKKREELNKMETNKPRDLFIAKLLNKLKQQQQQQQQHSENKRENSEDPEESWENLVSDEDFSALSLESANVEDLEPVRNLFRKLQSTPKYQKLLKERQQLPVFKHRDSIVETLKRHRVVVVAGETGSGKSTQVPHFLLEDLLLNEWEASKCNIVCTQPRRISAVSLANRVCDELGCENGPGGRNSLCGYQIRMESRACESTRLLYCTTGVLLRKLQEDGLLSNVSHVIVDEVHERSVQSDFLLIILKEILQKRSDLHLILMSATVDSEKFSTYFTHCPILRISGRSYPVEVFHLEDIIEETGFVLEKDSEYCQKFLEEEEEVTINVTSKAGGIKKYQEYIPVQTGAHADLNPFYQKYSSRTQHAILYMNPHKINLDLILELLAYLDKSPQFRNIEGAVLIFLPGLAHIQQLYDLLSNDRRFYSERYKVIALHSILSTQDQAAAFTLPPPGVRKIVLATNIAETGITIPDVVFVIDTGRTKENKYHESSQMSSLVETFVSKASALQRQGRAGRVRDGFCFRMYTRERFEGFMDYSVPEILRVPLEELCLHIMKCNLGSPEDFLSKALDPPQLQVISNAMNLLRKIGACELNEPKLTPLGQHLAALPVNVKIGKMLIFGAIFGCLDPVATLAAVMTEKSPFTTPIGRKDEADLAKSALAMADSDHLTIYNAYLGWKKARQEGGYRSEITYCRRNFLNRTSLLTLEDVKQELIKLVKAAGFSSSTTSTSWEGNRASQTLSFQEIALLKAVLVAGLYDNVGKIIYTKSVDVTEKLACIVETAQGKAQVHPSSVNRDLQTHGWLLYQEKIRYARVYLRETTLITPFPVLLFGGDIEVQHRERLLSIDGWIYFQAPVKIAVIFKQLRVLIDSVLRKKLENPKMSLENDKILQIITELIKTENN
As to the kind of experiment: Inhibition of full length recombinant human N-terminal His-FLAG-tagged DHX29 RNA dependent ATPase activity expressed in baculovirus infected Sf9 insect cells using single stranded poly(U) RNA as substrate after 30 mins by ADP-Glo luminescence assay.

A short description of data set [5]: Solubility of the compound at pH 6.8. It counts as physicochemical. The following applies: buffer.
Data set [6] deals with T1, U5 small nuclear ribonucleoprotein 200 kDa helicase. The experiment in a line: Inhibition of full length recombinant human N-terminal His-tagged BRR2 helicase activity expressed in baculovirus infected Sf9 cells using 5'-[FITC]-UUCCCCUGCAUAAC-3'/5'-GUUAUGCAGGGGAACCAACGCAUAUCAGUGAGGAUU-3' RNA as substrate after 10 mins in presence of ATP by PAGE analysis.
Data set [7] in a line: Permeability of the compound at pH 7.4 by PAMPA. It counts as physicochemical. The following applies: read-out: permeability. (In PAMPA a lipid-coated filter parts donor from acceptor wells.)
The target in data set [8] is T1, U5 small nuclear ribonucleoprotein 200 kDa helicase. As to the kind of experiment: Inhibition of full length recombinant human N-terminal His-tagged BRR2 helicase activity expressed in baculovirus infected Sf9 cells using 5'-[FITC]-UUCCCCUGCAUAAC-3'/5'-GUUAUGCAGGGGAACCAACGCAUAUCAGUGAGGAUU-3' RNA as substrate at 100 uM after 10 mins in presence of ATP by PAGE analysis.

The IC50 is the point on the concentration scale where inhibition reaches its midpoint. One may read the solubility as how much of the substance goes into solution per volume. Read a low solubility as little dissolved substance.

In brackets after ≈: the same amount, converted by molar mass. Activity calls are given as the source filed them. No cut-off for these calls is given here.

T1 sequence (O75643 whole entry): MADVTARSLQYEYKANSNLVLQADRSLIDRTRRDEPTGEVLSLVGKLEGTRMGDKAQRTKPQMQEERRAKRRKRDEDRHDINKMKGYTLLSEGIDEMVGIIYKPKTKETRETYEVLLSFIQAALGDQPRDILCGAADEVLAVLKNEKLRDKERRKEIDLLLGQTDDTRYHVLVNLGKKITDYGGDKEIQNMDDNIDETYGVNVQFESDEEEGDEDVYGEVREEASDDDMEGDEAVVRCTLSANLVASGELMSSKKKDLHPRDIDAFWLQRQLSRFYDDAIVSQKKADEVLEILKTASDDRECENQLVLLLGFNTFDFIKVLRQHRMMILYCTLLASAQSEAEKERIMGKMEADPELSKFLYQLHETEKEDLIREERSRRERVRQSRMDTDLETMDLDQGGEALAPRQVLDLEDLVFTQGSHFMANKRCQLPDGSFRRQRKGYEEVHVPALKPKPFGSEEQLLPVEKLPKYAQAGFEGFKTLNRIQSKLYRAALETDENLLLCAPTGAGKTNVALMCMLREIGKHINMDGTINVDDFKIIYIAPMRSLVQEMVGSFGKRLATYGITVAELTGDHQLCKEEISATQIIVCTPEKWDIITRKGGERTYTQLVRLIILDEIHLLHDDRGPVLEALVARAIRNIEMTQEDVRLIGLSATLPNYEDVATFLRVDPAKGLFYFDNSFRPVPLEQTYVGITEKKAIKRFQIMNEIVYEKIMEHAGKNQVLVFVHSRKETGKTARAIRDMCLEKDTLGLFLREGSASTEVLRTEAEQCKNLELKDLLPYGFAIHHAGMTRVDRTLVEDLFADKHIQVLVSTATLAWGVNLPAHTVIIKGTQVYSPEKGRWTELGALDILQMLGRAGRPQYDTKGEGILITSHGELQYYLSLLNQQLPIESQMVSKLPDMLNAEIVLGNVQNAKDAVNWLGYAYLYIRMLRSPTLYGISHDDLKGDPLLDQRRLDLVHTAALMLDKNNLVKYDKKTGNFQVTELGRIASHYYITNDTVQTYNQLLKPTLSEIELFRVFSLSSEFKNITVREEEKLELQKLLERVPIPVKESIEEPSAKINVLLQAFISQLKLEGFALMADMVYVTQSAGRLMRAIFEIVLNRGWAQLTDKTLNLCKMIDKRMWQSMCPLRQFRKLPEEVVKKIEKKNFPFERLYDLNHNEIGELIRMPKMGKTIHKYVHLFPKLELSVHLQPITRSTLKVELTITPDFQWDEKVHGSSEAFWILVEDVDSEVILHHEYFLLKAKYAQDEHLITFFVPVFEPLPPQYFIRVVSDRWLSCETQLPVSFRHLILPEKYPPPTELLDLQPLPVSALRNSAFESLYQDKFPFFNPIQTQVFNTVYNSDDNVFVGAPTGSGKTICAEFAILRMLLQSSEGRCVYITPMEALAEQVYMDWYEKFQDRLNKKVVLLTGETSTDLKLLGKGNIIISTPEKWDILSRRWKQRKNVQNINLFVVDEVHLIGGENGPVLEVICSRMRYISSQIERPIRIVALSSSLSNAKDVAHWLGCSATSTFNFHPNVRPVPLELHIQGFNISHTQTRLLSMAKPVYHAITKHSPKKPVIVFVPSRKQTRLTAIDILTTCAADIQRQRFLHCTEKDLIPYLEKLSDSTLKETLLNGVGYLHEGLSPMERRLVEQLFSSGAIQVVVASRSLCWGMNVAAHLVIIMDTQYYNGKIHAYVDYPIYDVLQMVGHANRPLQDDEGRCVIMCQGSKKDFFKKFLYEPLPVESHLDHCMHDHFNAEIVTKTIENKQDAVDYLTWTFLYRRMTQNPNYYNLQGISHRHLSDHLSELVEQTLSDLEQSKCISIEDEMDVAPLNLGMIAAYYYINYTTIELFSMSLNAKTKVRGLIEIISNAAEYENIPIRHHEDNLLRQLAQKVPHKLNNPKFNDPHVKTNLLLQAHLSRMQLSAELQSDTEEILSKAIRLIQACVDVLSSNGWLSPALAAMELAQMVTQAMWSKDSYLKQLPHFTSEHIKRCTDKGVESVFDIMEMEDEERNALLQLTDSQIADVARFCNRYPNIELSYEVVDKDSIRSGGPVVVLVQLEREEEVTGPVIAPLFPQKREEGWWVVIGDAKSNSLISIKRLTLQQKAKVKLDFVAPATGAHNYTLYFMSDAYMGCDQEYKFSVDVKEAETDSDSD
Sequence of Eukaryotic initiation factor 4A-I (P60842 whole entry): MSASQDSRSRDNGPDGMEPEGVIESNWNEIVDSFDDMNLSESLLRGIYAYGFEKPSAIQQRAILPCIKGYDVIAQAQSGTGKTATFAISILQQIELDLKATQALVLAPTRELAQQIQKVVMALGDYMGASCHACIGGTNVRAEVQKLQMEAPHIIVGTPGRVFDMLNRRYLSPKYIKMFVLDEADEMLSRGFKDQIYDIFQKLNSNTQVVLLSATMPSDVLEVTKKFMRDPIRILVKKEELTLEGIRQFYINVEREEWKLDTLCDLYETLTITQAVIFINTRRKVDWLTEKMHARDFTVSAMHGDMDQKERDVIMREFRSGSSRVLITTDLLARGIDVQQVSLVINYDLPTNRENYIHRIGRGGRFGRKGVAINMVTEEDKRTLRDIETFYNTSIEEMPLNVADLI
Sequence of Eukaryotic initiation factor 4A-III (P38919 whole entry): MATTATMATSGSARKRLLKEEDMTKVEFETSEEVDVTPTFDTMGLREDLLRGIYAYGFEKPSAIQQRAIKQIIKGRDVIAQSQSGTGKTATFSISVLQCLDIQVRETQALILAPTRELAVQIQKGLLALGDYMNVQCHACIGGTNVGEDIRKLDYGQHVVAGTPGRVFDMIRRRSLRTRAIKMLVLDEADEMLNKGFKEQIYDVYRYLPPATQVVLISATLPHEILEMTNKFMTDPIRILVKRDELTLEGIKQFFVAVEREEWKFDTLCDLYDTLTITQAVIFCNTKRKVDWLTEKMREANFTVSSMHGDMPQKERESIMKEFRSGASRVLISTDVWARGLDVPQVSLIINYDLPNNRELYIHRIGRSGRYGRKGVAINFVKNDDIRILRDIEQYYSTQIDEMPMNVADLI

For the compound `CC(C)C[C@H]1C[C@@H](C)[C@]2(C(=O)Nc3ccc(F)cc32)N1C(=O)c1cn(Cc2ccccc2)cn1`, the concentration for half-maximal inhibition (IC50) is 0.011 µM in data set [1]; greater than 100 µM in data set [2]; greater than 100 µM in data set [3]; greater than 100 µM in data set [4]; 0.35 µM in data set [6]. This compound gave a solubility in data set [5] of 45 µg/mL (≈ 97.7 µM). Besides, the Papp in data set [7] is 18.2 ×10⁻⁶ cm/s.

For the compound `CC(C)C[C@H]1C[C@@H](C)[C@]2(C(=O)Nc3ccc(F)cc32)N1C(=O)c1cn(C)cn1`, the IC50 is 0.021 µM in data set [1]; greater than 100 µM in data set [2]; greater than 100 µM in data set [3]; greater than 100 µM in data set [4]; 0.48 µM in data set [6]. For the same compound, the solubility in data set [5] was greater than 99 µg/mL. Moreover, in data set [7], the Papp was found to be 18.3 ×10⁻⁶ cm/s.

As for `CC(C)C[C@H]1C[C@@H](C)[C@]2(C(=O)Nc3ccc(F)cc32)N1C(=O)c1cn(Cc2ccccc2)cn1` (racemic), the IC50 in data set [1] was 0.024 µM.

For the compound `CC(C)C[C@@H]1C[C@H](C)[C@@]2(C(=O)Nc3ccc(F)cc32)N1C(=O)c1cn(C)cn1`, the IC50 is 84 µM in data set [1], greater than 100 µM in data set [2] and greater than 100 µM in data set [3]. In data set [5], this compound came in with a solubility greater than 110 µg/mL. The inhibition result in data set [8] was “inactive”. The Papp in data set [7] stood at 16.8 ×10⁻⁶ cm/s.

Take `CC(C)C[C@H]1C[C@@H](C)[C@]2(C(=O)Nc3ccc(F)cc32)N1C(=O)c1cn(C)cn1` (racemic): the IC50 in data set [1] is 0.042 µM.

As to `CC(C)C[C@@H]1C[C@H](C)[C@@]2(C(=O)Nc3ccc(F)cc32)N1C(=O)c1cn(Cc2ccccc2)cn1`, the IC50 in data set [1], in data set [2] and in data set [3] was greater than 100 µM in each case. The compound also had a solubility in data set [5] of 46 µg/mL (≈ 99.9 µM). In data set [8], the inhibition entry was “inactive”. Further, the Papp in data set [7] was 19.5 ×10⁻⁶ cm/s.
